Experimental data reported in ChEMBL document CHEMBL2073997, “Effect of multidrug resistance-reversing agents on transporting activity of human canalicular multispecific organic anion transporter” (Mol Pharmacol, 1999).
One block for each molecule: values may come before it.

What was measured:
[1] = target: T1, ATP-binding cassette sub-family C member 2 (Homo sapiens, UniProt Q92887); assay: TP_TRANSPORTER: inhibition of LTC4 uptake in membrane vesicles from MRP2-expressing LLC PK1 cells; assay type: functional, cell membranes, Membrane vesicle
[2] = target: T1, ATP-binding cassette sub-family C member 2; assay: TP_TRANSPORTER: increase in Vincristine intracellular accumulation (Vincristine: 1 uM, PAK-104P: 10 uM) in MRP2-expressing LLC PK1 cells; assay type: functional, cell-based; details: pig, llc-pk1, 10 µM
[3] = target: T1, ATP-binding cassette sub-family C member 2; assay: (§1) TP_TRANSPORTER: uptake in membrane vesicles from MRP2-expressing LLC PK1 cells; assay type: functional, cell membranes, Membrane vesicle; details: pig
[4] = target: T1, ATP-binding cassette sub-family C member 2; assay: TP_TRANSPORTER: increase in Vincristine intracellular accumulation (Vincristine: 1 uM, MK571: 10 uM) in MRP2-expressing LLC PK1 cells; assay type: functional, cell-based; details: pig, llc-pk1, 10 µM
[5] = target: T1, ATP-binding cassette sub-family C member 2; assay: TP_TRANSPORTER: increase in Vincristine intracellular accumulation (Vincristine: 1 uM, PSC-833: 10 uM) in MRP2-expressing LLC PK1 cells; assay type: functional, cell-based; details: pig, llc-pk1, 10 µM
[6] = target: T1, ATP-binding cassette sub-family C member 2; assay: TP_TRANSPORTER: intracellular accumulation in MRP2-expressing LLC PK1 cells; assay type: functional, cell-based; details: pig
[7] = substrate: CCCCC/C=C\C\C=C/C=C/C=C/[C@@H](SC[C@@H](NC(=O)CC[C@H](N)C(=O)O)C(=O)NCC(=O)O)[C@@H](O)CCCC(=O)O; assay: as §1; assay type: functional, cell membranes, Membrane vesicle

- Ki [1]: 3.7 µM
- Activity [2]: inhibitor [+]
Molecule: Cc1nc(C)c(P2(=O)O[C@H](C)C[C@@H](C)O2)c(-c2cccc([N+](=O)[O-])c2)c1C(=O)OCCN1CCN(C(c2ccccc2)c2ccccc2)CC1 (some centres undefined)

Molecule: N[C@@H](CCC(=O)N[C@H](CSc1ccc([N+](=O)[O-])cc1[N+](=O)[O-])C(=O)NCC(=O)O)C(=O)O
- Activity [3]: substrate [+]

Molecule: CN(C)C(=O)CCSC(SCCC(=O)O)c1cccc(/C=C/c2ccc3ccc(Cl)cc3n2)c1 (centres undefined) [MK-571]
- Activity [4]: inhibitor [+]
- Ki [1]: 13.1 µM

Molecule: C/C=C/C[C@@H](C)C(=O)[C@H]1C(=O)N[C@@H](C(C)C)C(=O)N(C)CC(=O)N(C)[C@@H](CC(C)C)C(=O)N[C@@H](C(C)C)C(=O)N(C)[C@@H](CC(C)C)C(=O)N[C@@H](C)C(=O)N[C@H](C)C(=O)N(C)[C@@H](CC(C)C)C(=O)N(C)[C@@H](CC(C)C)C(=O)N(C)[C@@H](C(C)C)C(=O)N1C [VALSPODAR]
- Ki [1]: 28.9 µM
- Activity [5]: inhibitor [+]

- Activity [6]: substrate [+]
Molecule: CC[C@]1(O)C[C@H]2CN(CCc3c([nH]c4ccccc34)[C@@](C(=O)OC)(c3cc4c(cc3OC)N(C=O)[C@H]3[C@@](O)(C(=O)OC)[C@H](OC(C)=O)[C@]5(CC)C=CCN6CC[C@]43[C@@H]65)C2)C1 [VINCRISTINE]

B1: ATP-binding cassette sub-family C member 2 (Homo sapiens) (protein)
chain: MLEKFCNSTFWNSSFLDSPEADLPLCFEQTVLVWIPLGYLWLLAPWQLLHVYKSRTKRSSTTKLYLAKQVFVGFLLILAAIELALVLTEDSGQATVPAVRYTNPSLYLGTWLLVLLIQYSRQWCVQKNSWFLSLFWILSILCGTFQFQTLIRTLLQGDNSNLAYSCLFFISYGFQILILIFSAFSENNESSNNPSSIASFLSSITYSWYDSIILKGYKRPLTLEDVWEVDEEMKTKTLVSKFETHMKRELQKARRALQRRQEKSSQQNSGARLPGLNKNQSQSQDALVLEDVEKKKKKSGTKKDVPKSWLMKALFKTFYMVLLKSFLLKLVNDIFTFVSPQLLKLLISFASDRDTYLWIGYLCAILLFTAALIQSFCLQCYFQLCFKLGVKVRTAIMASVYKKALTLSNLARKEYTVGETVNLMSVDAQKLMDVTNFMHMLWSSVLQIVLSIFFLWRELGPSVLAGVGVMVLVIPINAILSTKSKTIQVKNMKNKDKRLKIMNEILSGIKILKYFAWEPSFRDQVQNLRKKELKNLLAFSQLQCVVIFVFQLTPVLVSVVTFSVYVLVDSNNILDAQKAFTSITLFNILRFPLSMLPMMISSMLQASVSTERLEKYLGGDDLDTSAIRHDCNFDKAMQFSEASFTWEHDSEATVRDVNLDIMAGQLVAVIGPVGSGKSSLISAMLGEMENVHGHITIKGTTAYVPQQSWIQNGTIKDNILFGTEFNEKRYQQVLEACALLPDLEMLPGGDLAEIGEKGINLSGGQKQRISLARATYQNLDIYLLDDPLSAVDAHVGKHIFNKVLGPNGLLKGKTRLLVTHSMHFLPQVDEIVVLGNGTIVEKGSYSALLAKKGEFAKNLKTFLRHTGPEEEATVHDGSEEEDDDYGLISSVEEIPEDAASITMRRENSFRRTLSRSSRSNGRHLKSLRNSLKTRNVNSLKEDEELVKGQKLIKKEFIETGKVKFSIYLEYLQAIGLFSIFFIILAFVMNSVAFIGSNLWLSAWTSDSKIFNSTDYPASQRDMRVGVYGALGLAQGIFVFIAHFWSAFGFVHASNILHKQLLNNILRAPMRFFDTTPTGRIVNRFAGDISTVDDTLPQSLRSWITCFLGIISTLVMICMATPVFTIIVIPLGIIYVSVQMFYVSTSRQLRRLDSVTRSPIYSHFSETVSGLPVIRAFEHQQRFLKHNEVRIDTNQKCVFSWITSNRWLAIRLELVGNLTVFFSALMMVIYRDTLSGDTVGFVLSNALNITQTLNWLVRMTSEIETNIVAVERITEYTKVENEAPWVTDKRPPPDWPSKGKIQFNNYQVRYRPELDLVLRGITCDIGSMEKIGVVGRTGAGKSSLTNCLFRILEAAGGQIIIDGVDIASIGLHDLREKLTIIPQDPILFSGSLRMNLDPFNNYSDEEIWKALELAHLKSFVASLQLGLSHEVTEAGGNLSIGQRQLLCLGRALLRKSKILVLDEATAAVDLETDNLIQTTIQNEFAHCTVITIAHRLHTIMDSDKVMVLDNGKIIECGSPEELLQIPGPFYFMAKEAGIENVNSTKF
- Km [7]: 0.26 µM
